Experimental data taken from publication doi:10.1101/2024.08.19.608619, “Discovery of potent SARS-CoV-2 nsp3 macrodomain inhibitors uncovers lack of translation to cellular antiviral response” (bioRxiv, 2024).
Where “and” joins values, the source holds several entries; their conditions need not be identical. Identical values can stand only once. Like-named read-outs stand apart in the source and are kept apart here.

Columns and labels:
[1] = molecular target: T1, COX2(h) (Homo sapiens, UniProt P35354); test: In vitro CEREP profiling, COX2(h); type: biochemical; details: test compound concentration 10 uM, Enzyme and Cell-based assays; for inhibition at 10 µM: read-out: perc_inhibition: % inhibition of control enzyme activity, COX2(h)
T1 construct: purchased Eurofins Cerep (SafetyScreen44), recognised from the panel format
T1 sequence (P35354 18-604): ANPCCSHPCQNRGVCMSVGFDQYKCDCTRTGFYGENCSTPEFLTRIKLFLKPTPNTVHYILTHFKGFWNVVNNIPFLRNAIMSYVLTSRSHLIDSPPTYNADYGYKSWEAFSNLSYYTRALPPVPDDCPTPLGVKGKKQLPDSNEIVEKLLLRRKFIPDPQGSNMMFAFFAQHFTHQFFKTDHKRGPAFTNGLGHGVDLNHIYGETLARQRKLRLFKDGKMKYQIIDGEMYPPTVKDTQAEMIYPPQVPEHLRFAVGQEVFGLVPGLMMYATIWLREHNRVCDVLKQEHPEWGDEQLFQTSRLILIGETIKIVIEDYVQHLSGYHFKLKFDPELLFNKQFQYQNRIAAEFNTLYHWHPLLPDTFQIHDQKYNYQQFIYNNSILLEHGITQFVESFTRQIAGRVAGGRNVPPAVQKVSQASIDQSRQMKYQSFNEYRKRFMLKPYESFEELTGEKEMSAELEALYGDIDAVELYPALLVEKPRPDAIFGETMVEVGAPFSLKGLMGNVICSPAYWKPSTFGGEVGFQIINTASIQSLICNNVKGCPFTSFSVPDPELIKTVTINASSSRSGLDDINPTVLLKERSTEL
Source text: (§1) Supplement media-1.zip/Safety_Panel_Profile.csv, table | column: perc_inhibition

[2] = molecular target: T2, PKG1α(h) (Homo sapiens, UniProt Q13976); test: biochemical; design: In vitro kinase panel profiling, per cent remaining kinase activity at 10 uM; details: atp_concentration=90, read-out: % of control remaining
T2 construct: gene PRKG1; isoform alpha
T2 sequence (Q13976 1-671): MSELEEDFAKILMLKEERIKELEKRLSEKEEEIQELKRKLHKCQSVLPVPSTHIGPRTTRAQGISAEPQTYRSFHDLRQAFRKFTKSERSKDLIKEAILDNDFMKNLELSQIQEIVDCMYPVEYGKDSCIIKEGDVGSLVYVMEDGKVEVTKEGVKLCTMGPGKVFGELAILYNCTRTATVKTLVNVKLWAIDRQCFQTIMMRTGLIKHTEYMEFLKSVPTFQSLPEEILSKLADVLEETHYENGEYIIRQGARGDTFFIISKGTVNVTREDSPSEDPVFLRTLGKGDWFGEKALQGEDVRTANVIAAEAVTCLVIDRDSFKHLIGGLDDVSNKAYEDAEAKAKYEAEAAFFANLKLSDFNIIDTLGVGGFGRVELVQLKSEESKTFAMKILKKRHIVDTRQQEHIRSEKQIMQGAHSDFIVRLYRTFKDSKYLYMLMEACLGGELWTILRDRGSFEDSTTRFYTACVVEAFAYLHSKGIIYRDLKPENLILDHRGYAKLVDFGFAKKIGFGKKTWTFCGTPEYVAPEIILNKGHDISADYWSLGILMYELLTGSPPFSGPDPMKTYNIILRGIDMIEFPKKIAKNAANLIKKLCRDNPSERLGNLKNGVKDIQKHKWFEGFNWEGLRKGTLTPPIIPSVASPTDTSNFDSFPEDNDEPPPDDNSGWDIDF
Source text: (§2) We derisk potential for off-target activity by profiling the compound in a CEREP panel, a standard secondary pharmacology assessment, as well as a kinase panel to derisk a potential hinge-binding motif in our leads, and a PARP panel to derisk activity against human […]. Reassuringly, the compounds are selective, with the only off-targets being moderate human CHRM2 and KOR receptors activity associated with ASAP-0011198.

[3] = molecular target: T3, eEF-2K(h) (Homo sapiens, UniProt O00418); test: biochemical; design: In vitro kinase panel profiling, per cent remaining kinase activity at 10 uM; details: atp_concentration=15, read-out: % of control remaining
T3 construct: gene EEF2K
T3 sequence (O00418 1-725): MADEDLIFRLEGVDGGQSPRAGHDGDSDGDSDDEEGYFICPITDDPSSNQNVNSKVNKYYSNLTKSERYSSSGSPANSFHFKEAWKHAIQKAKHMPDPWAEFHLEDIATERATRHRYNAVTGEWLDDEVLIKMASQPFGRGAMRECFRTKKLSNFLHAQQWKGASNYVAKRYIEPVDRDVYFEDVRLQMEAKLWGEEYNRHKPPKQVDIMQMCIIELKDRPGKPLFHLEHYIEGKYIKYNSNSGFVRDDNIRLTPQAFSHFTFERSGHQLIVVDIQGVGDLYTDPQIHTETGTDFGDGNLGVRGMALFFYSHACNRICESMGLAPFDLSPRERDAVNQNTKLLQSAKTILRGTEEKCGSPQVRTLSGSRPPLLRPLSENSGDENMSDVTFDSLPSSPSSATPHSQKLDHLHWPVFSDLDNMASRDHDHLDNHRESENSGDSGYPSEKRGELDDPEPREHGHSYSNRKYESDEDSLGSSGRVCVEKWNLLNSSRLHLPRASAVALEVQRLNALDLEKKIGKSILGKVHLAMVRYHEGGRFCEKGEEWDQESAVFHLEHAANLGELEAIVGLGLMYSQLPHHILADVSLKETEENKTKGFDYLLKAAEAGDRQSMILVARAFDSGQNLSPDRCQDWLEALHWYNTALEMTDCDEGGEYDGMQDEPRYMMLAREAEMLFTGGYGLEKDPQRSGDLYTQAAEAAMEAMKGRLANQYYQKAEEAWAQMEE
Source text: as §2

[4] = test system: Ca2+ channel (L, dihydropyridine site); test: In vitro CEREP profiling, Ca2+ channel (L, dihydropyridine site) (antagonist radioligand); type: binding; details: test compound concentration 10 uM
Source text: as §1

[5] = In vitro human hepatocyte stability; type: in vitro ADME
Source text: (§3) Supplement media-1.zip/Hepatocyte_Stability.csv, table | column: clint; t_half

[6] = In vitro dog hepatocyte stability; type: in vitro ADME
Source text: as §3

[7] = in vitro; details: human, hela-ace2 cells, 50.0
[8] = Permeability Papp (AB) MDR1/MDCKII; details: for papp_b_to_a_mean: B to A; for perc_recovery_a_to_b_mean / perc_recovery_a_to_b_inhibitor_mean: recovery A to B; for perc_recovery_b_to_a_mean / perc_recovery_b_to_a_inhibitor_mean: recovery B to A; for Papp A→B: dog, MDCK-MDR1, Papp (AB) MDR1/MDCKII
[9] = molecular target: T4, PDE3A (h) (Homo sapiens, UniProt Q14432); test: In vitro CEREP profiling, PDE3A (h); type: biochemical; details: test compound concentration 10 uM, Enzyme and Cell-based assays; for inhibition at 10 µM: read-out: perc_inhibition: % inhibition of control enzyme activity, PDE3A (h)
T4 construct: purchased Eurofins Cerep (SafetyScreen44), recognised from the panel format
T4 sequence (Q14432 whole entry): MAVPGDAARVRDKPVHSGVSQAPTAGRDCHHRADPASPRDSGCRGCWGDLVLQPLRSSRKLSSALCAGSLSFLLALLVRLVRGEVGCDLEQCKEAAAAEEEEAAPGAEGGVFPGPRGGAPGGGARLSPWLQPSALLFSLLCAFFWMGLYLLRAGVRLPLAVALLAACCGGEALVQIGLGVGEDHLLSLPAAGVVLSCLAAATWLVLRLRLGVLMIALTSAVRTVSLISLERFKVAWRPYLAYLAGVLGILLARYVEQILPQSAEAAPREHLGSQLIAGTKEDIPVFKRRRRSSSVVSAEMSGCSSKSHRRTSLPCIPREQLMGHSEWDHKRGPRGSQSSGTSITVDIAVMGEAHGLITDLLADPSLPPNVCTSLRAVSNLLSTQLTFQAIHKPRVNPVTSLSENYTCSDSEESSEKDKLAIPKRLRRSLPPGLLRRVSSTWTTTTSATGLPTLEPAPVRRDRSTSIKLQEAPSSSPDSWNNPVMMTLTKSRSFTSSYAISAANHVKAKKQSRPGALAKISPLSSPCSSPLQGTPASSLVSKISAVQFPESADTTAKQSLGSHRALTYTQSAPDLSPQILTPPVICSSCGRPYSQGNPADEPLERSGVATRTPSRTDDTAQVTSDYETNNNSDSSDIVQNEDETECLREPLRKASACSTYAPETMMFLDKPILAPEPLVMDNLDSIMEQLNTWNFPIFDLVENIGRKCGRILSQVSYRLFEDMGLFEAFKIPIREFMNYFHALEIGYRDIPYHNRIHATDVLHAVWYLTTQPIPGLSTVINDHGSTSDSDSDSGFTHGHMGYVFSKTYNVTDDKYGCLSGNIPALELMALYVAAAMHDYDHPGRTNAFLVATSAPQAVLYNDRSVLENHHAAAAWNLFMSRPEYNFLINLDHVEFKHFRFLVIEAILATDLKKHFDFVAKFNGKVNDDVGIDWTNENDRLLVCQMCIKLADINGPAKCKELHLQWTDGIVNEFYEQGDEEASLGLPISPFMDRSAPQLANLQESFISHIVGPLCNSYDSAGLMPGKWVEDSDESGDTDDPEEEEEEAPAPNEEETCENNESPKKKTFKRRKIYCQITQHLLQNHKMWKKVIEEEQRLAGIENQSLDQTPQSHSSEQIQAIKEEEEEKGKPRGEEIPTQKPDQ
Source text: as §1

[10] = In vitro MDR1-MDCKII permeability, A to B, mean
[11] = In vitro MDR1-MDCKII permeability, A to B, no inhibitor
[12] = In vitro MDR1-MDCKII permeability, no inhibitor
[13] = In vitro MDR1-MDCKII permeability, mean
[14] = MDR1-MDCKII, with inhibitor Cyclosporin A
[15] = MDR1-MDCKII, with inhibitor Verapamil

SMILES | perc_inhibition (% inhibition of the binding of a ligand specific for each target) [4] [%] | t_half [5] [min] | t_half [6] [min] | papp_a_to_b_mean [8, 10] | papp_a_to_b_mean [8, 11] | papp_b_to_a_mean [8, 12] | perc_recovery_a_to_b_mean [8, 13] | perc_recovery_a_to_b_mean [8, 12] | perc_recovery_b_to_a_mean [8, 12] | perc_recovery_a_to_b_inhibitor_mean [8, 14] | perc_recovery_a_to_b_inhibitor_mean [8, 15] [%] | perc_recovery_b_to_a_inhibitor_mean [8, 14] | perc_recovery_b_to_a_inhibitor_mean [8, 15] [%] | also measured
CC(C)[C@H](Nc1ncnc2[nH]ccc12)c1ccc2c(c1)S(=O)(=O)CCC2 [ASAP-0008674] | 12 | 24.8 | > 231.0 | 5.5 ×10⁻⁶ cm/s | 0.12 ×10⁻⁶ cm/s and 0.0631 ×10⁻⁶ cm/s | 5.9 ×10⁻⁶ cm/s and 5.29 ×10⁻⁶ cm/s | 85.4% | 80.0% and 78.8% | 76.5% and 89.6% | 83.2% | 90.5 | 87.0% | 86.9 | perc_inhibition: % inhibition of control enzyme activity, COX2(h) [1]: 23%; remaining activity at 10 µM ([2]; batch_name=ASAP-0008674-002): 123%; remaining activity at 10 µM ([3]; batch_name=ASAP-0008674-002): 93%; clint [5]: 27.9 uL/min/1E6 cells; clint [6]: < 3.0 uL/min/1E6 cells; CC50 at 24 h [7]: > 20 µM; efflux_ratio [8, 12]: 49.5 and 83.8; perc_inhibition: % inhibition of control enzyme activity, PDE3A (h) [9]: 29%
Cc1nn(C)cc1-c1cc2c(NC(c3ccc4c(c3)S(=O)(=O)CCC4)C(C)C)ncnc2[nH]1 (stereo not drawn) [ASAP-0011446] | 12 | – | – | 4.36 ×10⁻⁶ cm/s | – | – | 77.0% | 69.7% | 63.5% | – | 87.7 | – | 93.0 | inhibition at 10 µM [1]: 23%; remaining activity at 10 µM ([2]; batch_name=ASAP-0011446-002): 128%; remaining activity at 10 µM ([3]; batch_name=ASAP-0011446-002): 98%; Papp A→B ([8]; A to B): 4.4 ×10⁻⁶ cm/s; inhibition at 10 µM [9]: 46%
CC(C)[C@@H](Nc1ncnc2[nH]c(-c3cnn(C)c3C#N)cc12)c1ccc2c(n1)OCCO2 [ASAP-0008418] | – | – | – | 12.8 ×10⁻⁶ cm/s and 21.3 ×10⁻⁶ cm/s | – | – | 82.0% and 88.6% | – | – | – | – | – | – | remaining activity at 10 µM ([2]; batch_name=ASAP-0008418-001): 100%; remaining activity at 10 µM ([3]; batch_name=ASAP-0008418-001): 111%
CC(C)C(Nc1ncnc2[nH]ccc12)c1ccc2c(c1)S(=O)(=O)CCC2 (stereo not drawn) [ASAP-0008327] | – | – | – | – | – | – | 87.0% | – | – | – | – | – | – | remaining activity at 10 µM ([2]; batch_name=ASAP-0008327-001): 88%; remaining activity at 10 µM ([3]; batch_name=ASAP-0008327-001): 92%
CC(C)[C@@H](Nc1ncnc2[nH]c(-c3cnn(C)c3C#N)cc12)c1ccc2c(n1)OCCO2 [ASAP-0010716] | 10 | 3.81 | 177.0 | 14.6 ×10⁻⁶ cm/s | 1.05 ×10⁻⁶ cm/s and 1.02 ×10⁻⁶ cm/s and 0.676 ×10⁻⁶ cm/s | 6.5 ×10⁻⁶ cm/s and 6.1 ×10⁻⁶ cm/s and 8.26 ×10⁻⁶ cm/s | 85.7% | 67.5% and 74.0% and 87.7% | 70.0% and 84.4% and 95.1% | 115.0% and 75.2% | 107.0 | 106.0% and 78.2% | 88.6 | perc_inhibition: % inhibition of control enzyme activity, COX2(h) [1]: -7%; remaining activity at 10 µM ([2]; batch_name=ASAP-0010716-002): 123%; remaining activity at 10 µM ([3]; batch_name=ASAP-0010716-002): 106%; clint [5]: 182.0 uL/min/1E6 cells; clint [6]: 3.91 uL/min/1E6 cells; papp_a_to_b_inhibitor_mean ([8]; MDR1-MDCKII, A to B, with inhibitor Cyclosporin A): 4.51 ×10⁻⁶ cm/s; perc_inhibition: % inhibition of control enzyme activity, PDE3A (h) [9]: 37%
CC(C)C(Nc1ncnc2[nH]c(C(=O)NC3CCN(C)C3)cc12)c1ccc2c(c1)S(=O)(=O)CCC2 (stereo not drawn) [ASAP-0011198] | -6 | > 231.0 | > 231.0 | – | 0.0631 ×10⁻⁶ cm/s | 0.0474 ×10⁻⁶ cm/s | 94.6% | 86.2% and 71.8% | 93.1% and 82.5% | 100.0% and 74.6% | – | 100.0% and 87.0% | – | inhibition at 10 µM [1]: 4%; remaining activity at 10 µM ([2]; batch_name=ASAP-0011198-002): 116%; remaining activity at 10 µM ([3]; batch_name=ASAP-0011198-002): 89%; hepatocyte CLint ([5]; hepatocytes): < 3 µL/min/1e6 cells; hepatocyte CLint ([6]; hepatocytes): < 3 µL/min/1e6 cells; Papp A→B ([8]; A to B): 2.9 ×10⁻⁶ cm/s; inhibition at 10 µM [9]: 4%
COc1ccc([C@@H](Cc2nnn[nH]2)NC(=O)c2ncnc3[nH]ccc23)cc1 [ASAP-0008340] | – | – | – | 1.39 ×10⁻⁶ cm/s | – | – | 89.1% | – | – | – | – | – | – | remaining activity at 10 µM ([2]; batch_name=ASAP-0008340-001): 95%; remaining activity at 10 µM ([3]; batch_name=ASAP-0008340-001): 96%
